In general, IC50 refers to the concentration that gives 50% inhibition. The CC50 is the concentration at which the toxic effect on the cells reaches its halfway point.

The test system of series [1] is Acanthamoeba castellanii Neff trophozoites. The arrangement: method as in PMID 30423882. As to conditions: previous work; read-out: IC50 against Acanthamoeba castellanii Neff; cited from earlier work.
Series [2] has the same test system. As to the kind of experiment: In vitro activity against Acanthamoeba trophozoites (alamarBlue colorimetric assay). It is filed as cell-based, Acanthamoeba castellanii Neff (ATCC 30010). The settings on record: 96 h, read-out: IC50 against Acanthamoeba castellanii Neff. Here is the method: (§1) The antiamoeboid activity of the compounds was evaluated against Acanthamoeba castellanii Neff (ATCC 30010) type strain from the American Type Culture Collection. This strain was axenically incubated in PYG medium (0.75% (w/v) proteose Peptone, 0.75% (w/v) Yeast extract, and 1.5% (w/v) Glucose) supplemented with 10 µg/mL gentamicin (Sigma-Aldrich, Madrid, Spain). As for the cytotoxicity assays, murine macrophages J774A.1 (ATCC TIB-67) were used, cultivated in DMEM medium (Dulbecco’s modified eagle medium, Gibco Life Technologies, California, USA) with 10% supplement of fetal bovine serum (FBS) and 10 µg/mL gentamicin at 37 °C in a 5% CO2 incubator.
The in vitro activities of the different compounds of Laurencia were evaluated using a previously developed colorimetric assay based on the alamarBlue™ Cell Viability Reagent assay (Life Technologies, Barcelona, Spain). Briefly, 50 µL of 5 × 10⁴ trophozoites/mL were seeded onto a 96-well microtiter plate. After 15 min, the adherence of the cells to the plate bottom was confirmed by the use of the inverted microscope Leica DMIL (Leica, Wetzlar, Germany). Furthermore, 50 µL of serial dilutions of each compound was added to the 96-well microtiter plate. Finally, alamarBlue™ was placed into each well at 10% of the final volume and incubated at 26 °C with slight agitation. After 96 h, the fluorescence was measured with EnSpire Multimode Plate Reader (Perkin Elmer, Madrid, Spain) at a wavelength of 570/585 nm. The inhibitory concentration to inhibit the growth of 50% of the parasites (IC50) was calculated through nonlinear regression analysis with 95% confidence limits using the software Sigma Plot 12.0 (Systat Software Inc., London, UK). The experiments were performed three times each, allowing for standard deviation.
On the technique in general: The colour change of resazurin is a common sign of viable cells or microbes.

Series [3] is described as follows: Cytotoxicity assay (alamarBlue). It is filed as cell-based, murine. The arrangement: CC50, toxicity against murine macrophage J774A.1 (unit not given): unit not given beside the values. As to conditions: mouse, 24 h, 37 °C, read-out: CC50, toxicity against murine macrophage J774.A1. Here is the method: as §1
(§2) The cytotoxicity of the tested compounds was determined in vitro with murine macrophages (J774A.1). For this assay, the DMEM culture medium was changed from RPMI without phenol red (Roswell Park Memorial Institute, Thermo Fisher Scientific Inc., Waltham, MA, USA) to L-Glutamine supplemented with 10% (v/v) inactivated FBS and with 10 µg/mL gentamicin. In this assay, the macrophages were counted and seeded into a 96-well microtiter plate, adding 50 µL to each well from a stock solution of 2 × 10^5 cells/mL. Cells were then left to adhere for 15 min to the plate bottom and were checked with the inverted microscope Leica DMIL. After that, 50 µL of a serial dilution of the compounds was added to the 96-well microtiter plate. Finally, alamarBlue™ was added into each well at an amount equal to 10% of the final volume and incubated at 37 °C in the presence of CO2 at 5% for 24 h. After this period of time, as in the in vitro anti-Acanthamoeba assay, the fluorescence was determined with an EnSpire Multimode Plate Reader (PerkinElmer, Inc, Waltham, MA, USA) at a wavelength of 570/585 nm. The cytotoxicity concentration to inhibit the growth of 50% of murine macrophages (CC50) was calculated through nonlinear regression analysis with 95% confidence limits using the software Sigma Plot 12.0 (Systat Software, Inc, San Jose, CA 95110 USA). Experiments were performed three times each, allowing for standard deviation.

For series [4], the system named is murine macrophages J774A.1. As to the kind of experiment: Cytotoxicity assay (alamarBlue). Format: cell-based. The arrangement: CC50, toxicity against murine macrophage J774A.1 (unit not given): unit not given beside the values. The settings on record: for CC50, toxicity against murine macrophage J774A.1 (unit not given): mouse. Here is the method:
as §1, §2

The subject of series [5] is Acanthamoeba castellanii Neff trophozoites. As to the kind of experiment: In vitro activity against Acanthamoeba trophozoites (alamarBlue colorimetric assay). It is filed as cell-based, Acanthamoeba castellanii Neff (ATCC 30010). The settings on record: 42.5 µM (25 µg/mL).

Like-named read-outs stand apart in the source and are kept apart here.

As to 3α-bromojohnstane, the IC50 in series [1] was 41.5 µM.

Take `C[C@@H]1[C@H](O)[C@@H](C)/C=C/C=C/C=C/C=C/C=C/C=C/C=C/[C@H](O[C@@H]2O[C@H](C)[C@@H](O)[C@H](N)[C@@H]2O)C[C@@H]2O[C@](O)(C[C@@H](O)C[C@@H](O)[C@H](O)CC[C@@H](O)C[C@@H](O)CC(=O)O[C@H]1C)C[C@H](O)[C@H]2C(=O)O` [Amphotericin B, amphotericin B, reference compound]: the IC50 in series [2] (trophozoites, 26 °C) came to 39.6 ± 0.56 µM. Also, in series [3] (J774A.1 murine macrophages), the CC50 at 24 h was above 100 µM.

For `[H]/N=C(\N/C(=N/[H])NCCCCCCNC(=N)NC(=N)Nc1ccc(Cl)cc1)Nc1ccc(Cl)cc1` [Chlorhexidine, chlorhexidine, reference compound], the 50% cytotoxic concentration (CC50) at 24 h in series [3] (J774A.1 murine macrophages) was determined as 6.64 ± 0.35 µM.

Take `CC(C)(O)[C@H]1CC[C@](C)([C@@H](O)CC[C@](C)(O)[C@H]2CC[C@H]3O[C@@H]([C@]4(C)CC[C@@H](Br)C(C)(C)O4)CC[C@]3(C)O2)O1` [Compound 2, thyrsiferol]: the IC50 in series [2] amounted to 14 ± 1.57 µM. Further, in series [4], the “toxicity against murine macrophages (in words)” value was “not toxic against murine macrophages”. The “CC50, toxicity against murine macrophage J774A.1 (unit not given)” value in series [4] (24 h) is below 50. For the same compound, the CC50 at 24 h in series [3] is above 100 µM.

With `C=C(CC[C@H](O)[C@@]1(C)CC[C@@H](O)C(C)(C)O1)[C@H]1CC[C@H]2O[C@@H]([C@]3(C)CC[C@@H](Br)C(C)(C)O3)CC[C@]2(C)O1` [Compound 3, iubol], in series [2] (trophozoites, 26 °C), the IC50 was determined as 5.3 ± 0.87 µM. In series [5], the “inhibitory effect on the growth of A. castellanii trophozoites (microscopy)” value was “many of the treated cells were dead”. In addition, the CC50 in series [3] is 7.72 ± 0.22 µM.

Consider `C=C(CC[C@H](O)[C@@]1(C)CC[C@](O)(C(C)(C)O)O1)[C@H]1CC[C@H]2O[C@@H]([C@]3(C)CC[C@@H](Br)C(C)(C)O3)CC[C@]2(C)O1` [Compound 4, 22-hydroxydehydrothyrsiferol], for which, in series [2] (trophozoites, 26 °C), the IC50 worked out at 17 ± 4.57 µM. For the same compound, in series [4], the “toxicity against murine macrophages (in words)” value is on record as “not toxic against murine macrophages” and the “CC50, toxicity against murine macrophage J774A.1 (unit not given)” value is reported as below 50. Also, the CC50 in series [3] is above 100 µM.

As for `C=C(C)[C@@H]1CC[C@@](C)([C@H]2CC[C@]3(C)O[C@@H](C(=C)CC[C@H](O)[C@@]4(C)CC[C@H](C(C)(C)O)O4)CC[C@H]3O2)O1` [Compound 5, 1,2-dehydropseudodehydrothyrsiferol], the concentration for half-maximal inhibition (IC50) in series [2] (trophozoites, 26 °C) is 105 ± 1.72 µM. Further, in series [3] (J774A.1 murine macrophages), the CC50 at 24 h is above 100 µM.

Consider `CC(C)(O)[C@H]1CC[C@](C)([C@@H]2CC[C@@](C)([C@H]3CC[C@H]4O[C@@H]([C@]5(C)CC[C@@H](Br)C(C)(C)O5)CC[C@]4(C)O3)O2)O1` [Compound 6, saiyacenol A], for which, in series [2] (trophozoites, 26 °C), the IC50 was 55.4 ± 6.56 µM. Besides, the CC50 in series [3] amounted to 59.9 ± 8.5 µM.

On to `CC(C)(O)[C@H]1CC[C@](C)([C@@H]2CC[C@](C)([C@H]3CC[C@H]4O[C@@H]([C@]5(C)CC[C@@H](Br)C(C)(C)O5)CC[C@]4(C)O3)O2)O1` [Compound 7, saiyacenol B], for which the IC50 in series [2] (trophozoites, 26 °C) stood at 77.9 ± 3.3 µM. Besides, the CC50 in series [3] was above 100 µM.

For `CC(C)(O)[C@H]1CC[C@](C)([C@@H]2CC[C@@](CO)([C@H]3CC[C@H]4O[C@@H]([C@]5(C)CC[C@@H](Br)C(C)(C)O5)CC[C@]4(C)O3)O2)O1` [Compound 8, 28-hydroxysaiyacenol A], the IC50 in series [2] (trophozoites, 26 °C) was 66.2 ± 3.81 µM. For the same compound, the CC50 in series [3] is above 100 µM.

Regarding `CC(C)(O)[C@H]1CC[C@](C)([C@@H]2CC[C@](CO)([C@H]3CC[C@H]4O[C@@H]([C@]5(C)CC[C@@H](Br)C(C)(C)O5)CC[C@]4(C)O3)O2)O1` [Compound 9, 28-hydroxysaiyacenol B], the IC50 in series [2] (trophozoites, 26 °C) came to 59.9 ± 10.1 µM. For the same compound, in series [3], the half-maximal cytotoxic concentration (CC50) was above 100 µM.

In the case of `CC(C)(O)C1CCC(C)(C2CCC(C)(C3CCC(C(C)(O)CCC4OC(C)(C)C5CCC4(C)O5)O3)O2)O1` (centres unmarked) [Compound 10, nivariol A], the IC50 in series [2] (trophozoites, 26 °C) amounted to 102 ± 9.57 µM. Further, the CC50 at 24 h in series [3] (J774A.1 murine macrophages) was above 100 µM.

On to `CC1(C)O[C@](C)([C@H]2CC[C@]3(C)OC(=O)CC[C@H]3O2)CC[C@H]1Br` [Compound 11, adejene B], for which, in series [2] (trophozoites, 26 °C), the IC50 worked out at 48.3 ± 0.55 µM. For the same compound, in series [3] (J774A.1 murine macrophages), the 50% cytotoxic concentration (CC50) at 24 h was above 100 µM.

As for `C=C(CC[C@H](OS(=O)(=O)O)[C@@]1(C)CC[C@H](C(C)(C)O)O1)[C@H]1CC[C@H]2O[C@@H]([C@]3(C)CC[C@@H](Br)C(C)(C)O3)CC[C@]2(C)O1` [Compound 12, 18-sulphatedehydrothyrsiferol], the IC50 in series [2] (trophozoites, 26 °C) was found to be 43.18 ± 0.14 µM. In addition, in series [3], the CC50 is above 100 µM.

In the case of `C=C(CCC(=O)[C@@]1(C)CC[C@H](C(C)(C)O)O1)[C@H]1CC[C@H]2O[C@@H]([C@]3(C)CC[C@@H](Br)C(C)(C)O3)CC[C@]2(C)O1` [Compound 13, 18-ketodehydrothyrsiferol], the half-maximal inhibitory concentration (IC50) in series [2] (trophozoites, 26 °C) amounted to 29.1 ± 2.84 µM. Moreover, in series [3], the half-maximal cytotoxic concentration (CC50) is 23.4 ± 1.76 µM.

In the case of `CC(C)(O)[C@H]1CC[C@](C)([C@@H]2CC[C@@](CI)([C@H]3CC[C@H]4O[C@@H]([C@]5(C)CC[C@@H](Br)C(C)(C)O5)CC[C@]4(C)O3)O2)O1` [Compound 14, 28-iodosaiyacenol A], the IC50 in series [2] (trophozoites, 26 °C) was 50.5 ± 3.05 µM. The CC50 in series [3] was determined as 29.45 ± 0.2 µM.

In the case of `CC(C)(O)[C@H]1CC[C@](C)([C@@H]2CC[C@](CI)([C@H]3CC[C@H]4O[C@@H]([C@]5(C)CC[C@@H](Br)C(C)(C)O5)CC[C@]4(C)O3)O2)O1` [Compound 15, 28-iodosaiyacenol B], in series [2] (trophozoites, 26 °C), the IC50 amounted to 54.3 ± 6.56 µM. Further, in series [3], the CC50 was above 100 µM.

On to `CC(C)(O)[C@H]1CC[C@](C)([C@@H](O)CCC(O)(CO)[C@H]2CC[C@H]3O[C@@H]([C@]4(C)CC[C@@H](Br)C(C)(C)O4)CC[C@]3(C)O2)O1` (some centres unmarked) [Compound 16, 28-hydroxythyrsiferol], for which the IC50 in series [2] (trophozoites, 26 °C) came out at 104 ± 8.42 µM. For the same compound, the CC50 in series [3] was above 100 µM.

Consider `C[C@@H](c1ncncc1F)[C@](O)(Cn1cncn1)c1ccc(F)cc1F` [Voriconazole, voriconazole, reference compound], for which the half-maximal inhibitory concentration (IC50) in series [2] (trophozoites, 26 °C) amounted to 0.94 ± 0.29 µM. The CC50 at 24 h in series [3] (J774A.1 murine macrophages) turned out to be 2.64 ± 0.27 µM.

(Values after publication PMC6669608, “Evaluation of Oxasqualenoids from the Red Alga Laurencia viridis against Acanthamoeba” (Marine Drugs, 2019).)
